Key:
Assay in all cases: relative viability (nuclei count vs DMSO), 5 days (fraction); higher = more cells survive
[1] = compound: O=C(O)C(Cc1ccccc1[N+](=O)[O-])=NNc1nc(-c2ccc(Cl)c(Cl)c2)cs1 (mixture of isomers) [4EGI-1] + Cc1cc(Nc2cc(N3CCN(C)CC3)nc(Sc3ccc(NC(=O)C4CC4)cc3)n2)n[nH]1 [Tozasertib] (partner 0.1 µM)
Method in brief: (§1)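 Lung cancer cell lines, seeded in 1536-well plates, were treated the following day by pin tool with a single drug or with five library-drug doses (not always all listed) in √10 steps on top of a fixed anchor-drug dose. Cells were fixed and nuclei stained in one step after 5 days, and nuclei were counted. Relative viability is the nuclei count for treated wells divided by that for vehicle wells, reported as medians of duplicate plates.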

[2] = compound: CN1CCN(CC1)C2=CC(=C(C=C2)NC3=NC=C4C(=N3)N(C5=CC=CC=C5C(=O)N4C)C)OC [XMD8-85] + Nc1ncn([C@H]2C[C@H](O)[C@@H](CO)O2)c(=O)n1 [Decitabine] (partner 2 µM)
Method in brief: as §1

[3] = compound: O=C(O)C(Cc1ccccc1[N+](=O)[O-])=NNc1nc(-c2ccc(Cl)c(Cl)c2)cs1 (mixture of isomers) [4EGI-1] + O=C(CCCCCCC(=O)Nc1ccccc1)NO [Vorinostat] (partner 1 µM)
Method in brief: as §1

[4] = compound: CN1CCN(CC1)C2=CC(=C(C=C2)NC3=NC=C4C(=N3)N(C5=CC=CC=C5C(=O)N4C)C)OC [XMD8-85] + C[C@@H](Oc1cc(-c2cnn(C3CCNCC3)c2)cnc1N)c1c(Cl)ccc(F)c1Cl [Crizotinib] (partner 1 µM)
Method in brief: as §1

Cell Line | relative viability ([1]; first compound 0.5 µM) | relative viability ([1]; first compound 5 µM) | relative viability ([1]; first compound 15.81 µM) | relative viability ([1]; first compound 50 µM) | relative viability ([2]; first compound 0.08 µM) | relative viability ([2]; first compound 0.253 µM) | relative viability ([2]; first compound 0.8 µM) | relative viability ([2]; first compound 2.53 µM) | relative viability ([2]; first compound 8 µM) | relative viability ([3]; first compound 0.5 µM) | relative viability ([3]; first compound 5 µM) | relative viability ([3]; first compound 15.81 µM) | relative viability ([3]; first compound 50 µM) | relative viability ([4]; first compound 0.08 µM) | relative viability ([4]; first compound 0.253 µM) | relative viability ([4]; first compound 0.8 µM) | relative viability ([4]; first compound 2.53 µM) | relative viability ([4]; first compound 8 µM) | relative viability ([3]; first compound 1.581 µM) | relative viability ([1]; first compound 1.581 µM)
HCC-78 | 0.538 | 0.336 | 1.56 | 0.289 | 0.672 | 0.694 | 0.736 | 0.671 | 0.675 | 0.579 | 0.435 | 0.443 | 0.451 | 0.363 | 0.364 | 0.304 | 0.37 | 0.295 | – | –
NCI-H3122 | 0.418 | 0.387 | 0.334 | 0.116 | 0.401 | 0.439 | 0.481 | 0.507 | 0.543 | 1.04 | 1.03 | 1.11 | 0.773 | 0.261 | 0.258 | 0.274 | 0.329 | 0.331 | 1.11 | –
LOU-NH91 | 0.671 | 0.666 | 0.432 | 0.69 | 0.797 | 0.852 | 0.793 | 0.821 | 0.646 | 0.993 | 0.964 | 0.782 | 0.529 | 0.749 | 0.741 | 0.728 | 0.725 | 0.67 | – | –
ChaGo-K-1 | 0.209 | 0.212 | 0.209 | 0.208 | 0.553 | 0.521 | 0.551 | 0.525 | 0.45 | 0.779 | 0.796 | 0.781 | 0.347 | 1.08 | 1.15 | 1.44 | 0.887 | – | 0.61 | 0.208
NCI-H727 | 0.595 | 0.502 | 0.499 | 0.585 | 0.867 | 1.04 | 0.84 | 0.894 | 0.643 | 1.13 | 1.22 | 1.04 | 0.714 | 0.78 | 0.777 | 0.755 | 0.595 | 0.358 | 0.94 | 0.765
NCI-H2009 | 0.813 | 0.784 | 0.697 | 0.211 | 0.42 | 0.371 | 0.414 | 0.417 | 0.255 | 0.798 | 0.822 | 0.736 | 0.375 | 1.03 | 0.981 | 1.1 | 1.06 | 0.395 | 0.701 | 0.709
NCI-H23 | 0.393 | 0.471 | 0.382 | 0.214 | 0.306 | 0.316 | 0.349 | 0.32 | 0.267 | 0.779 | 0.612 | 0.58 | 0.165 | 0.4 | 0.434 | 0.472 | 0.387 | 0.217 | – | –
